Results on 13 compounds are retold here after ChEMBL document CHEMBL3600319, “Chemical constituents isolated from the Mongolian medicinal plant Sophora alopecuroides L. and their inhibitory effects on LPS-induced nitric oxide production in RAW 264.7 macrophages” (Bioorg Med Chem Lett, 2015).

pIC50: −log10 of the molar value.

Series [1] relates to RAW264.7. As to the kind of experiment: Cytotoxicity against mouse RAW264.7 cells assessed as cell viability at IC50 by MTT assay. Format: cell-based.
Series [2] concerns RAW264.7. The experiment in a line: Antiinflammatory activity in mouse RAW264.7 cells assessed as inhibition of LPS-stimulated nitric oxide production after 24 hrs by Griess method. Format: functional, cell-based. The settings on record: RAW264.7, 24 h.
The subject of series [3] is RAW264.7. The experiment in a line: Potency index, ratio of aminoguanidine IC50 to compound IC50 for mouse RAW264.7 cells. In kind it is functional.

For the compound `C=C(C)C(CCC(C)(C)O)Cc1c2c(c(O)c3c1O[C@H](c1ccc(O)cc1)[C@H]3c1cc(O)cc(O)c1)C(=O)C[C@@H](c1ccc(O)cc1O)O2` (stereo partly specified), in the series with RAW264.7 [1], the Activity result is “Non-toxic”. Further, the pIC50 in the series on RAW264.7 [2] was 4.49.
On the same counts, the results for `CC1(C)CCC(Cc2c3c(c(O)c4c2O[C@H](c2ccc(O)cc2)[C@H]4c2cc(O)cc(O)c2)C(=O)C[C@@H](c2ccc(O)cc2O)O3)C(C)(C)O1` (stereo partly specified) are “Non-toxic” and 4.56.
On the same counts, the results for `C=C(C)C(CC=C(C)C)Cc1c2c(c(O)c3c1O[C@@H](c1ccc(O)cc1)[C@H]3c1cc(O)cc(O)c1)C(=O)C[C@@H](c1ccc(O)cc1O)O2` (stereo partly specified) are “Non-toxic” and 4.80.
On the same counts, the results for `CC(C)=CCc1c2c(c(O)c3c1O[C@H](c1ccc(O)cc1)[C@H]3c1cc(O)cc(O)c1)C(=O)C[C@@H](c1ccc(O)cc1)O2` are “Non-toxic” and 4.72.
As for `CC(C)=CCc1c2c(c(O)c3c1O[C@H](c1ccc(O)cc1)[C@H]3c1cc(O)cc(O)c1)C(=O)C[C@@H](c1ccc(O)cc1O)O2`, the Activity result in the series on RAW264.7 [1] is listed as “Non-toxic”. In addition, the “Ratio IC50” value in the series with RAW264.7 [3] turned out to be 3. For the same compound, the pIC50 in the series on RAW264.7 [2] is 5.14.
As for `CC(C)=CCC1Cc2c(cc(O)c3c2O[C@H](c2ccc(O)cc2O)CC3=O)OC1(C)C` (stereo partly specified), the Activity result with RAW264.7 [1] is “Non-toxic”. Besides, the pIC50 in the series with RAW264.7 [2] is 4.97.
On the same counts, the results for `C=CC(C)(C)c1c(OC)cc(O)c2c(=O)c3c(CC=C(C)C)c(O)c(O)cc3oc12` [CUDRAXANTHONE D] are “Non-toxic” and 4.79.
On the same counts, the results for `C=C(C)C(CC=C(C)C)Cc1c(O)cc(OC)c2c1O[C@H](c1ccc(O)cc1O)CC2=O` (stereo partly specified) [KURARINONE] are “Non-toxic” and 4.58.
Regarding `Oc1ccc([C@@H]2c3c(O)cc(O)cc3[C@H]3[C@H](c4ccc(O)cc4)c4c(O)cc(O)cc4[C@@H]23)cc1` [PALLIDOL], the Activity entry with RAW264.7 [1] was “Non-toxic”. Further, in the series with RAW264.7 [2], the negative-log IC50 (pIC50) is below 4.30.
Consider `N=C(N)NN` [PIMAGEDINE], for which the negative-log IC50 (pIC50) in the series with RAW264.7 [2] is 4.69.
As to `CC(C)=CCc1c(O)cc(O)c2c1OC(c1ccc(O)cc1)CC2=O` (stereo unspecified) [SOPHORAFLAVANONE B], the Activity result in the series on RAW264.7 [1] is reported as “Non-toxic”. Moreover, the pIC50 in the series with RAW264.7 [2] was 4.58.
On the same counts, the results for `C=C(C)[C@H](CC=C(C)C)Cc1c(O)cc(O)c2c1O[C@H](c1ccc(O)cc1O)CC2=O` [SOPHORAFLAVANONE G] are “Non-toxic” and 4.96.
As for `OC[C@H]1O[C@@H](Oc2ccc3c(c2)OC[C@H]2c4cc5c(cc4O[C@@H]32)OCO5)[C@H](O)[C@@H](O)[C@@H]1O` [TRIFOLIRHIZIN], the Activity result in the series with RAW264.7 [1] is recorded as “Non-toxic”. Further, the pIC50 with RAW264.7 [2] is below 4.30.
